Assay [1] relates to cyclooxygenase. Briefly: inhibition of synthesis of cyclooxygenase products TxB2 and PGE2 (rat polymorphonuclear leukocytes). It counts as cell-based. Conditions: 10 μM; rat PMN; negative = potentiation of PGE2 synthesis. An outline of the steps:
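Glycogen-elicited peritoneal PMN from female Wistar rats, 2×10^7 cells/ml in HBSS with Ca^++, Mg^++ and 10 mM L-cysteine, preincubated with compound 10 min at 37° C. Stimulated 10 min with A23187 (10 μM) plus 0.5 μM [14C] arachidonic acid; TxB2 and PGE2 quantified by TLC, autoradiography and scintillation counting.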

The target of assay [2] is T1, 5-lipoxygenase (Homo sapiens, UniProt P09917).
T1 construct: Blood is obtained in 50-100 ml quantities from male donors; endogenous in cells; host or cells: human whole blood (leukocytes) from male donors
T1 sequence (P09917 1-674): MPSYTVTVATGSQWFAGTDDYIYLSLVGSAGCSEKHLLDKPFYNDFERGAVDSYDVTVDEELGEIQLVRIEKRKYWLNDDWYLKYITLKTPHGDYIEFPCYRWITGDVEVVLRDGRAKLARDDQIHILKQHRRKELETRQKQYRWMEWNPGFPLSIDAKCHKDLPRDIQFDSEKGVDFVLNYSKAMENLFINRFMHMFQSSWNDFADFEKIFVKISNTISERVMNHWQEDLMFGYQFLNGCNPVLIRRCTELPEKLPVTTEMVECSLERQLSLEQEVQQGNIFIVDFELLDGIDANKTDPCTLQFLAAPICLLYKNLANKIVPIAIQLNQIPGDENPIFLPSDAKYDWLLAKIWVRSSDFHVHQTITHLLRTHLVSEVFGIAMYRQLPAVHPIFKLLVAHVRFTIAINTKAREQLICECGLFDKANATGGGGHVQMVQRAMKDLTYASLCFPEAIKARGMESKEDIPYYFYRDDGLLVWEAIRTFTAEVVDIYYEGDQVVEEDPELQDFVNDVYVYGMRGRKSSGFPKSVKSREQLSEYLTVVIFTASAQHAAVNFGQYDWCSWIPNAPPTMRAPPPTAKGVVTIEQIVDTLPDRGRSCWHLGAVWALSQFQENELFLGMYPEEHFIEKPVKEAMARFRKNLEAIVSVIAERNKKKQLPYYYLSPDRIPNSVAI
Put plainly: inhibition of 5-lipoxygenase in human whole blood (LTB4). Format: cell-based. Conditions: human whole blood. An outline of the steps:
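Donor whole blood preincubated with compound (final 0.1% DMSO) 10 min at 37 °C, then stimulated with 30 μM calcium ionophore A23187 for 20 min at 37 °C; stopped on ice with 10 mM EGTA. Plasma LTB4 measured by RIA or ELISA, expressed per 10^6 neutrophils; IC50 by regression analysis.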

Structures can show the parent of a compound that is named as a salt.

On to `C[C@H](C(=O)N(C)O)c1ccc2cc(OCc3ccc4ccccc4n3)ccc2c1` [Example 24, (S)-N-Hydroxy-α-N-dimethyl-6-(2-quinolinylmethoxy)-2-naphthaleneacetamide], for which the “% Inhibition of CO (as PGE2)” value in assay [1] came to 13%. The inhibition at 5 µM in assay [2] (5 μM, read-out: % Inhibition of LTB4) amounted to 44%.
For `C[C@H](C(=O)O)c1ccc2cc(OCc3ccc4ccccc4n3)ccc2c1` [Example 17, S-(α)-α-Methyl-6-(2-quinolinylmethoxy)-2-naphthaleneacetic acid, tromethanime salt], the “% Inhibition of CO (as PGE2)” value in assay [1] turned out to be 20%. The inhibition at 25 µM in assay [2] (25 μM) came to 19%.

(Values after US5208344A, “Naphthalenepropionic acid derivatives as anti-inflammatory/antiallergic agents” (American Home Products Corporation, priority 1991, dated 1993).)
